According to ChEMBL document CHEMBL6127035, “Novel pyridazinone derivatives bind to KSRP: Synthesis, anti-tumor biological evaluations and modelling insights” (Eur J Med Chem, 2024):
Calls of active or inactive are those of the source. The calls are words filed in the database; no cut-off is given here.

Legend:
[1] = Acute toxicity in ip dosed BALB/c nu/nu mouse assessed as lethal dose measured after 7 days; format: organism-based; conditions: in vivo, time 7 day
[2] = system: MCF7; experiment: Induction of apoptosis in human MCF7 cells assessed as late apoptotic cells at 0.62 uM incubated for 48 hrs by Annexin V-FITC/PI staining based flow cytometric analysis (reference value: 5.31 %); format: functional
[3] = system: MCF7; experiment: Antitumor activity against human MCF7 cells xenografted in BALB/C-nu/nu mouse model assessed as decrease in tumor volume at 30 mg/kg, iv administered every other day for 15 days relative to control; format: functional; parameters: scale not given: the % may be the effect or the level left; conditions: time 15 day
[4] = Cytotoxicity against human L02 cells assessed as reduction in cell viability incubated for 2 days by MTT assay; format: toxicity, cell-based
[5] = system: MCF7; experiment: Induction of apoptosis in human MCF7 cells assessed as late apoptotic cells at 1.25 uM incubated for 48 hrs by Annexin V-FITC/PI staining based flow cytometric analysis (reference value: 5.31 %); format: functional
[6] = system: MCF7; experiment: Induction of DNA double-strand breaks in human MCF7 cells assessed as enlarged nucleus at 10 uM incubated for 24 hrs by Hoechst 33342 staining based fluorescence microscopic analysis; format: functional, cell-based
[7] = Acute toxicity in BALB/c nu/nu mouse assessed as survival rate at 120 mg/kg, ip administered for 7 days relative to control; format: organism-based; conditions: in vivo, time 7 day
[8] = system: MCF7; experiment: Antitumor activity against human MCF7 cells xenografted in BALB/C-nu/nu mouse model assessed as inhibition of Ki-67 expression level at 20 to 30 mg/kg, iv administered every other day for 15 days by immunohistochemical analysis; format: functional, organism-based; conditions: dose 20-30 mg/kg, time 15.0 day
[9] = system: MCF7; experiment: Induction of apoptosis in human MCF7 cells assessed as necrotic cells at 1.25 uM incubated for 48 hrs by Annexin V-FITC/PI staining based flow cytometric analysis (reference value: 1.16 %); format: functional
[10] = Toxicity in BALB/C-nu/nu mouse xenografted with human MCF7 cells assessed as histopathological lesions in heart at 20 to 30 mg/kg, iv administered every other day for 15 days by H and E staining based analysis; format: organism-based; conditions: in vivo, 360 h, dose 20-30 mg/kg, time 15 day
[11] = system: MCF7; experiment: Antitumor activity against human MCF7 cells xenografted in BALB/C-nu/nu mouse model assessed as decrease in tumor volume at 20 mg/kg, iv administered every other day for 15 days relative to control; format: functional; parameters: scale not given: the % may be the effect or the level left; conditions: time 15 day
[12] = Toxicity in BALB/C-nu/nu mouse xenografted with human MCF7 cells assessed as reduction in body weight at 30 mg/kg, iv administered every other day for 15 days relative to control; format: organism-based; parameters: scale not given: the % may be the effect or the level left; conditions: in vivo, 360 h, time 15 day
[13] = Toxicity in BALB/C-nu/nu mouse xenografted with human MCF7 cells assessed as histopathological lesions in spleen at 20 to 30 mg/kg, iv administered every other day for 15 days by H and E staining based analysis; format: organism-based; conditions: in vivo, 360 h, dose 20-30 mg/kg, time 15 day
[14] = system: MIA PaCa-2; experiment: Antiproliferative activity against human MIA PaCa-2 cells assessed as reduction in cell viability incubated for 2 days by MTT assay; format: functional, cell-based; conditions: MIA PaCa-2, 48 h
[15] = system: U-87 MG; experiment: Antiproliferative activity against human U-87 MG cells assessed as reduction in cell viability incubated for 2 days by MTT assay; format: functional, cell-based, U-87MG ATCC; conditions: 48 h
[16] = system: MCF7; experiment: Antiproliferation against human MCF7 cells assessed as effect on cell proliferation at 0.625 uM incubated for 2 days by MTT assay; format: functional, cell-based; conditions: time 2.0 day
[17] = Toxicity in BALB/C-nu/nu mouse xenografted with human MCF7 cells assessed as histopathological lesions in liver at 20 to 30 mg/kg, iv administered every other day for 15 days by H and E staining based analysis; format: organism-based; conditions: in vivo, 360 h, dose 20-30 mg/kg, time 15 day
[18] = system: MCF7; experiment: Induction of cell cycle arrest in human MCF7 cells assessed as decrease in S phase cells at 5 uM incubated for 24 hrs by PI staining based flow cytometric analysis; format: functional
[19] = system: MCF7; experiment: Antitumor activity against human MCF7 cells xenografted in BALB/C-nu/nu mouse model assessed as increase in gamma-H2AX expression at 20 to 30 mg/kg, iv administered every other day for 15 days by immunohistochemical analysis; format: functional, organism-based; conditions: dose 20-30 mg/kg, time 15.0 day
[20] = Acute toxicity in BALB/c nu/nu mouse assessed as survival rate at 110 mg/kg, ip administered for 7 days relative to control; format: organism-based; conditions: in vivo, time 7 day
[21] = system: MDA-MB-231; experiment: Antiproliferative activity against human MDA-MB-231 cells assessed as reduction in cell viability incubated for 2 days by MTT assay; format: functional, cell-based; conditions: MDA-MB-231, 48 h
[22] = Toxicity in BALB/C-nu/nu mouse xenografted with human MCF7 cells assessed as histopathological lesions in kidney at 20 to 30 mg/kg, iv administered every other day for 15 days by H and E staining based analysis; format: organism-based; conditions: in vivo, 360 h, dose 20-30 mg/kg, time 15 day
[23] = system: MCF7; experiment: Induction of apoptosis in human MCF7 cells assessed as early apoptotic cells at 1.25 uM incubated for 48 hrs by Annexin V-FITC/PI staining based flow cytometric analysis (reference value: 6.33 %); format: functional
[24] = system: MCF7; experiment: Induction of apoptosis in human MCF7 cells assessed as necrotic cells at 2.5 uM incubated for 48 hrs by Annexin V-FITC/PI staining based flow cytometric analysis (reference value: 1.16 %); format: functional
[25] = system: A549; experiment: Antiproliferative activity against human A549 cells assessed as reduction in cell viability incubated for 2 days by MTT assay; format: functional, cell-based; conditions: A549, 48 h
[26] = system: MCF7; experiment: Antiproliferative activity against human MCF7 cells assessed as reduction in cell viability incubated for 2 days by MTT assay; format: functional, cell-based; conditions: MCF7, 48 h
[27] = system: MCF7; experiment: Induction of cell cycle arrest in human MCF7 cells assessed as increase in sub-G1 phase cells at 5 uM incubated for 24 hrs by PI staining based flow cytometric analysis; format: functional
[28] = system: MCF7; experiment: Induction of apoptosis in human MCF7 cells assessed as early apoptotic cells at 2.5 uM incubated for 48 hrs by Annexin V-FITC/PI staining based flow cytometric analysis (reference value: 6.33 %); format: functional
[29] = system: MCF7; experiment: Induction of DNA double-strand breaks in human MCF7 cells assessed as increase in gamma-H2AX foci formation at 10 uM incubated for 24 hrs by […] fluorescence microscopic analysis; format: functional, cell-based
[30] = system: MCF7; experiment: Antitumor activity against human MCF7 cells xenografted in BALB/C-nu/nu mouse model assessed as decrease in tumor growth at 20 to 30 mg/kg, iv administered every other day for 15 days; format: functional, organism-based; conditions: dose 20-30 mg/kg, time 15.0 day
[31] = Toxicity in BALB/C-nu/nu mouse xenografted with human MCF7 cells assessed as histopathological lesions in lung at 20 to 30 mg/kg, iv administered every other day for 15 days by H and E staining based analysis; format: organism-based; conditions: in vivo, 360 h, dose 20-30 mg/kg, time 15 day
[32] = system: MCF7; experiment: Inhibition of cell migration in human MCF7 cells assessed as reduction in wound healing index at 0.625 uM measured after 72 hrs by scratch assay; format: functional, cell-based
[33] = system: MCF7; experiment: Induction of apoptosis in human MCF7 cells assessed as viable cells at 1.25 uM incubated for 48 hrs by Annexin V-FITC/PI staining based flow cytometric analysis (reference value: 87.2 %); format: functional; conditions: read-out: Activity
[34] = system: MCF7; experiment: Induction of apoptosis in human MCF7 cells assessed as viable cells at 0.62 uM incubated for 48 hrs by Annexin V-FITC/PI staining based flow cytometric analysis (reference value: 87.2 %); format: functional; conditions: read-out: Activity

CN(CCO)S(=O)(=O)c1ccc(-n2ncc(Cl)c(Cl)c2=O)cc1
LD50 at 168 h [1]: 105 mg/kg
Activity [2]: 6.63%
Activity [3]: 61.6%
IC50 at 2 days [4]: 8340 nM
Activity [5]: 13.5%
Activity [6]: Active
survival at 168 h [7]: 0%
Activity [8]: Active
Activity [9]: 1.26%
Activity [10]: Non-Toxic
Activity [11]: 37.7%
Activity [12]: 20%
Activity [13]: Non-Toxic
IC50 [14]: 360 nM
IC50 [15]: 400 nM
Activity [16]: inactive
Activity [17]: Non-Toxic
Activity [18]: Active
Activity [19]: Active
survival at 168 h [20]: 20%
IC50 [21]: 8350 nM
Activity [22]: Non-Toxic
Activity [23]: 10.2%
Activity [24]: 2.77%
IC50 [25]: 2050 nM
IC50 [26]: 3100 nM
Activity [27]: Active
Activity [28]: 26.7%
Activity [29]: Active
Activity [30]: Active
Activity [31]: Non-Toxic
inhibition [32]: Active
viability at 1.25 µM [33]: 75.1%
viability at 0.62 µM [34]: 84.5%
